What all share (assay type): physicochemical
The nature of data set [1]: UV-Vis absorption spectra in acetonitrile. To be noted: for λabs: Absorption maxima in acetonitrile. The method, then:
(§1) All starting materials and reagents were analytical grade, purchased from Aldrich and used without further purification. The organic solvents were dried over appropriate drying agents and distilled prior to use. UV-Vis absorption spectra were recorded on the Thermo Electron Spectrophotometer Corporation, model Nicolet Evolution 300, using acetonitrile (CH3CN) as solvent. Fluorescence spectra were recorded on a PerkinElmer Model LS 55 spectrophotometer. FTMS-ESI mass spectra were obtained on an Thermo Scientific Q Exactive Orbitrap Mass Spectrometer. Nuclear magnetic resonance (NMR) spectra were recorded at 400 MHz for ^1H NMR and at 100 MHz for ^13C NMR, on a Brucker Advance III spectrometer. For NMR spectra, deuterated chloroform (CDCl3) was used as solvent. The chemical shift (π) in ppm; coupling constants (J); relative intensity is indicated by the number of protons (H); multiplicities are indicated by singlet (s), doublet (d), double-doublet (dd), triplet (t), quadruple (q) and multiplet (m); coupling constants are given in Hertz (Hz).
as §1, with “400MHz” for “400 MHz”, “100MHz” for “at 100 MHz”, “^13C,” for “^13C NMR,”, “(CDCl3) or deuterated methanol (CD3OD)” for “(CDCl3)”, “(δ)” for “(π)”

Data set [2] in a line: Fluorescence emission spectra in acetonitrile. The settings on record: Emission maxima in acetonitrile. On the procedure: as §1
as §1, with “400MHz” for “400 MHz”, “100MHz” for “at 100 MHz”, “^13C,” for “^13C NMR,”, “(CDCl3) or deuterated methanol (CD3OD)” for “(CDCl3)”, “(δ)” for “(π)”

Data set [3] in a line: Fluorescence quantum yield in ethanol against 7-diethylamino-4-methylcoumarin as standard.
[4] abbreviates: Molar extinction coefficient at longest wavelength transition.
Where [5] appears, read: Molar extinction coefficient at longest wavelength transition (Table 5).
Where [6] appears, read: Fluorescence quantum yield in ethanol, standard 7-diethylamino-4-methylcoumarin (ΦF = 0.73 in ethanol).

Several values for one entry are separate records, joined by “and”; a condition that tells them apart may be missing. Equal entries are not always repeated. Where two headings read alike, the source gives them in different places.

Take `CCN(CC)c1ccc2c(/C=C/c3ccc(N(C)C)cc3)cc(=[N+]3CCCCC3)oc2c1.O=[N+]([O-])[O-]` [Compound 13, (E)-1-(7-(diethylamino)-4-(4-(dimethylamino)styryl)-2H-chromen-2ylidene)piperidin-1-ium nitrate]: the λabs in data set [1] is on record as 485 nm. Further, the ε in data set [1] (setting [4]) was 39000 cm^-1M^-1; in data set [1] (setting [5]), 39000 cm^-1m^-1. In addition, in data set [2], the λem was 608 nm.
Molecule `CCN(CC)c1ccc2c(C)cc(=O)oc2c1` [Compound 1, 7-diethylamino-4-methylcoumarin, reference compound] had a λabs in data set [1] of 371 nm. The ε in data set [1] (setting [4]) was found to be 22910 cm^-1M^-1; in data set [1] (setting [5]), 22910 cm^-1m^-1. The λem in data set [2] was determined as 434 nm. In data set [3] (setting [6]), this molecule registered a ΦF of 0.73.
In data set [1], `CCN(CC)c1ccc2c(c1)OC(=C(C#N)C#N)C=C2/C=C/c1ccc(OCCCCCC(=O)O)cc1` [Compound 8, (E)-6-(4-(2-(2-(dicyanomethylene)-7-(diethylamino)-2H-chromen-4yl)vinyl)phenoxy)hexanoic acid] showed a λabs of 519 nm. In data set [1] (setting [4]), this molecule yielded a ε of 24000 cm^-1M^-1. Moreover, the λem in data set [2] was determined as 596 nm. Also, the ΦF in data set [3] (setting [6]) is listed as 0.28.
Turning to `CCN(CC)c1ccc2c(/C=C/c3ccc(C(=O)OC)cc3)cc(=[N+]3CCCCC3)oc2c1.O=[N+]([O-])[O-]` [Compound 11, (E)-1-(7-(diethylamino)-4-(4-(methoxycarbonyl)styryl)-2H-chromen-2ylidene)piperidin-1-ium nitrate], in data set [1], the λabs amounted to 484 nm. The results for the ε in data set [1] (setting [4]) and in data set [1] (setting [5]) were 18000 cm^-1M^-1 and 18000 cm^-1m^-1, respectively. Besides, in data set [2], the λem was 609 nm. Moreover, the ΦF in data set [3] (setting [6]) is on record as 0.08.
For the molecule `CCN(CC)c1ccc2c(/C=C/c3ccccc3)cc(=[N+]3CCCCC3)oc2c1.O=[N+]([O-])[O-]` [Compound 12, (E)-1-(7-(diethylamino)-4-styryl-2H-chromen-2-ylidene)-piperidin-1-ium nitrate], the λabs in data set [1] is on record as 467 nm. In addition, the ε in data set [1] (setting [5]) amounted to 17000 cm^-1m^-1. This molecule displayed a λem in data set [2] of 525 nm. Besides, the ΦF in data set [3] (setting [6]) came out at 0.34.
Regarding `CCN(CC)c1ccc2c(c1)OC(=C(C#N)C#N)C=C2/C=C/c1ccc(N(C)C)cc1` [Compound 6, (E)-2-(7-(diethylamino)-4-(4-(dimethylamine)styryl)-2H-chromen-2ylidene)malononitrile], in data set [1], the λabs came out at 496 nm. Besides, the ε in data set [1] (setting [4]) is given as 34000 cm^-1M^-1. For the same molecule, in data set [1] (experimental absorption spectrum), the “visible shoulder (lowest energy S0 → S1 transition)” value was “around 536 nm”. The λem in data set [2] is given as 597 nm. The ΦF in data set [3] is 0.95 and 0.98.
The molecule `CCN(CC)c1ccc2c(c1)OC(=C(C#N)C#N)C=C2/C=C/c1ccccc1` [Compound 5] displayed a λabs in data set [1] of 516 nm. Further, in data set [1] (setting [4]), the ε stood at 17000 cm^-1M^-1. In data set [2], this molecule registered a λem of 603 nm. Also, in data set [3] (setting [6]), the ΦF turned out to be 0.16.
Take `CCN(CC)c1ccc2c(/C=C/c3ccc(OCCCCCC(=O)ON4C(=O)CCC4=O)cc3)cc(=[N+]3CCCCC3)oc2c1.O=[N+]([O-])[O-]` [Compound 16, (E)-1-(7-(diethylamino)-4-(4-((6-((2,5-dioxopyrrolidin-1-yl)oxy)-6oxohexyl)oxy)styryl)-2H-chromen-2-ylidene)piperidin-1-ium nitrate]: the λabs in data set [1] is reported as 404 nm. Further, in data set [1] (setting [5]), the ε is 30000 cm^-1m^-1. Besides, the λem in data set [2] came to 577 nm. The ΦF in data set [3] (setting [6]) is 0.92.
Take `CCN(CC)c1ccc2c(/C=C/c3ccc(OC)cc3)cc(=[N+]3CCCCC3)oc2c1.O=[N+]([O-])[O-]` [Compound 14, (E)-1-(7-(diethylamino)-4-(4-methoxystyryl)-2H-chromen-2-ylidene)piperidin-1-ium nitrate]: the λabs in data set [1] came out at 410 nm. Also, the ε in data set [1] (setting [5]) amounted to 30000 cm^-1m^-1. The λem in data set [2] is on record as 578 nm.
Consider `CCN(CC)c1ccc2c(c1)OC(=C(C#N)C#N)C=C2/C=C/c1ccc(C(=O)OC)cc1` [Compound 4], for which the λabs in data set [1] worked out at 520 nm. The ε in data set [1] (setting [4]) is recorded as 19000 cm^-1M^-1. Moreover, in data set [2], the λem worked out at 620 nm. In addition, the ΦF in data set [3] (setting [6]) is 0.04 and 0.08.
The molecule `CCN(CC)c1ccc2c(c1)OC(=C(C#N)C#N)C=C2C` [Compound 3, 2-(7-(diethylamino)-4-methyl-2H-chromen-2-ylidene)malononitrile] had a λabs in data set [1] of 477 nm. Besides, the ε in data set [1] (setting [4]) came to 38000 cm^-1M^-1. Besides, the bathochromic shift result in data set [1] (compared with its precursor (2)) was “more than 100 nm”. This molecule also yielded a λem in data set [2] of 519 nm. In data set [3] (setting [6]), this molecule yielded a ΦF of 0.05.
In data set [1], `CCN(CC)c1ccc2c(C)cc(=[N+]3CCCCC3)oc2c1.O=[N+]([O-])[O-]` [Compound 10, 1-(7-(diethylamino)-4-methyl-2H-chromen-2-ylidene)-piperidin-1-ium nitrate] returned a λabs of 437 nm. In data set [1] (setting [5]), this molecule came in with a ε of 21000 cm^-1m^-1. Moreover, the bathochromic shift in data set [1] (compared with its precursor (1)) is > 66 nm. This molecule also yielded a λem in data set [2] of 490 nm. For the same molecule, the ΦF in data set [3] (setting [6]) is given as 0.14.
`CCN(CC)c1ccc2c(/C=C/c3ccc(OCCCCCC(=O)O)cc3)cc(=[N+]3CCCCC3)oc2c1.O=[N+]([O-])[O-]` [Compound 15, (E)-1-(4-(4-((5-carboxypentyl)oxy)styryl)-7-(diethylamino)-2H-chromen-2ylidene)piperidin-1-ium nitrate] yielded a λabs in data set [1] of 406 nm. For the same molecule, the ε in data set [1] (setting [5]) is recorded as 30000 cm^-1m^-1. In data set [2], this molecule yielded a λem of 578 nm. The ΦF in data set [3] (setting [6]) was found to be 0.90.
Take `CCN(CC)c1ccc2c(c1)OC(=C(C#N)C#N)C=C2/C=C/c1ccc(OC)cc1` [Compound 7, (E)-2-(7-(diethylamino)-4-(4-methoxystyryl)-2H-chromen-2-ylidene)malononitrile]: the λabs in data set [1] was 522 nm. In addition, the ε in data set [1] (setting [4]) is 24000 cm^-1M^-1. Also, in data set [2], the λem is recorded as 602 nm. In addition, the ΦF in data set [3] (setting [6]) came to 0.20.
In data set [1], `CCN(CC)c1ccc2c(c1)OC(=C(C#N)C#N)C=C2/C=C/c1ccc(OCCCCCC(=O)ON2C(=O)CCC2=O)cc1` [Compound 9, (E)-2,5-dioxopyrrolidin-1-yl 6-(4-(2-(2-(dicyanomethylene)-7-(diethylamino)-2Hchromen-4-yl)vinyl)phenoxy)hexanoate] showed a λabs of 523 nm. This molecule also came in with a ε in data set [1] (setting [4]) of 24000 cm^-1M^-1. Moreover, the λem in data set [2] was 597 nm. The molecule further gave a ΦF in data set [3] (setting [6]) of 0.29.

The values are drawn from EP4230701A1, “4-STYRYL COUMARINS DERIVATIVES AS FLUORESCENT LABELS FOR BIOMOLECULES” (Universidade de Évora, priority 2022, dated 2023).
